The values that follow are results of earlier work, collected in patent US20090202633A1, “Extended release formulations of guaifenesin” (priority 2008, published 2009).

Test in data set [1]: not given
The source holds these as a separate data set.

For the compound `COc1ccccc1OCC(O)CO` (centres unmarked) [Guaifenesin, 3-(2-methoxyphenoxy)-1,2-propanediol], the solubility in water result is “soluble in water”. Further, in data set [1], the typical plasma half-life entry is given as “approximately one”.
